The values that follow come from patent US8372979B2, “Process for the production of high-purity 2,4′-dimethyl-3-piperidino-propiophenone (tolperisone), pharmaceutical compositions that contain the latter, as well as active ingredient formulations that contain tolperisone” (SANOCHEMIA Pharmazeutika AG, priority 2007, dated 2013).

Structures are written as SMILES. “Also recorded” adds a separate entry of the source.

A short description of series [1]: preclinical in vitro tests (genotoxicity). As to conditions: classification also based on chemical structure.
Series [2] is described as follows: storage stability of tolperisone end product (4-MMPPO formation, HPLC-MS/MS). Format: physicochemical. Here is the method: Prior art according to AT PS 413 539: The tolperisone crude product is dissolved under reflux for 30 minutes in an 85:15 mixture that consists of 2-butanone (MEK) and isopropanol. The temperature is lowered to 80° C., and the solution is hot-filtered. The solution is allowed to cool to 5° C., and it is stirred for 7 hours. The crystalline precipitate that is obtained is filtered off, washed with 2-butanone, and then dried in a vacuum at 45-85° C.
A proportion of 500 ppm of 4-MMPPO is detected by analysis using HPLC-MS/MS.
The tolperisone crude product is dissolved under reflux for 12 hours in an 85:15 mixture that consists of 2-butanone (MEK) and isopropanol and with the addition of 1% HCl and 5% citric acid. The temperature is lowered to 80° C., and the solution is hot-filtered. The solution is allowed to cool to 5° C., and it is stirred for 7 hours at 5° C. The crystalline precipitate is filtered off, washed with MEK, and then dried in a vacuum at 45° to 85° C.
By analysis using HPLC-MS/MS, a proportion of 4-MMPPO in a range of 0 ppm (not detectable) to 10 ppm is determined.

Turning to `C=C(C)C(=O)c1ccc(C)cc1` [4-MMPPO, 2-methyl-1-(4-methylphenyl)-propenone], the “genotoxic or carcinogenic actions” value in series [1] is given as “genotoxic or carcinogenic actions have been detected; also recorded: potentially genotoxic”.
As to `Cc1ccc(C(=O)C(C)CN2CCCCC2)cc1` (stereo not drawn) [tolperisone, 2,4′-dimethyl-3-piperidino-propiophenone], the “stabilizing effect of citric acid present in end product” value in series [2] (Variant IIIa: recrystallization in MEK/IPA + 1% HCl + 5% citric acid) is listed as “a stabilizing effect could be detected”. For the same compound, the “4-MMPPO values with extended storage” value in series [2] (end product of prior-art process AT 413 539 (recrystallization MEK/IPA, no acid)) was “additional increasing 4-MMPPO values”.
